# From PubChem BioAssay (NCI)
#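 Step 1: Grow cells in 96-well plates. Step 2: Expose to compound for 48 hours at 5 concentrations. Step 3: Interpolate endpoints linearly; if unreached, use highest concentration. GI50 marks 50% less growth. TGI is the concentration that stops growth completely.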 The source made the active and inactive calls. Rule as the data show it: active = GI50 below about 0.43 µM; inactive = the rest.
# Legend:
# Test in all cases: NCI tumour cell line growth inhibition, 48 h
# HOP-62 NSCLC = test system: HOP-62 NSCLC
# OVCAR-3 ovarian = test system: OVCAR-3 ovarian
# UO-31 renal = test system: UO-31 renal
# PC-3 prostate = test system: PC-3 prostate
# SK-MEL-5 melanoma = test system: SK-MEL-5 melanoma
# HCT-15 colon = test system: HCT-15 colon
# SK-MEL-2 melanoma = test system: SK-MEL-2 melanoma
# BT-549 breast = test system: BT-549 breast
# U251 CNS = test system: U251 CNS
# M14 melanoma = test system: M14 melanoma
# NCI-H522 lung = test system: NCI-H522 lung
# DMS 273 small cell lung = test system: DMS 273 small cell lung
# HT29 colon = test system: HT29 colon
# NCI/ADR-RES ovarian = test system: NCI/ADR-RES ovarian
# LOX IMVI melanoma = test system: LOX IMVI melanoma
# LXFL 529 NSCLC = test system: LXFL 529 NSCLC
# OVCAR-5 ovarian = test system: OVCAR-5 ovarian
# MDA-N = test system: MDA-N
# RPMI-8226 leukemia = test system: RPMI-8226 leukemia
# UACC-62 melanoma = test system: UACC-62 melanoma
# HCT-116 colon = test system: HCT-116 colon
# A498 renal = test system: A498 renal
# T-47D breast = test system: T-47D breast
# 786-0 renal = test system: 786-0 renal
# HOP-92 NSCLC = test system: HOP-92 NSCLC
# SNB-75 CNS = test system: SNB-75 CNS
# MALME-3M melanoma = test system: MALME-3M melanoma
# SW-620 colon = test system: SW-620 colon
# SN12C renal = test system: SN12C renal
# OVCAR-8 ovarian = test system: OVCAR-8 ovarian
# SK-OV-3 ovarian = test system: SK-OV-3 ovarian
# UACC-257 melanoma = test system: UACC-257 melanoma
# RXF 393 renal = test system: RXF 393 renal
# MOLT-4 leukemia = test system: MOLT-4 leukemia
# HL-60(TB) leukemia = test system: HL-60(TB) leukemia
# COLO 205 colon = test system: COLO 205 colon
# MDA-MB-231 breast = test system: MDA-MB-231 breast
# KM20L2 colon = test system: KM20L2 colon
# A549 NSCLC = test system: A549 NSCLC
# CCRF-CEM leukemia = test system: CCRF-CEM leukemia
# SF-295 CNS = test system: SF-295 CNS
# HCC-2998 colon = test system: HCC-2998 colon
# NCI-H23 lung = test system: NCI-H23 lung
# MCF7 breast = test system: MCF7 breast
# ACHN renal = test system: ACHN renal
# DMS 114 small cell lung = test system: DMS 114 small cell lung
# M19-MEL melanoma = test system: M19-MEL melanoma
# DLD-1 colon = test system: DLD-1 colon
# SR leukemia = test system: SR leukemia
# OVCAR-4 ovarian = test system: OVCAR-4 ovarian
smiles,measurement,setting,value
C[CH2][Sn]([CH2]C)([O]C(=O)c1ccccc1F)[O]C(=O)c1ccccc1F,GI50,HOP-62 NSCLC,> 100 µM
same,TGI,HOP-62 NSCLC,> 100 µM
same,GI50,OVCAR-3 ovarian,> 100 µM
same,TGI,OVCAR-3 ovarian,> 100 µM
same,GI50,UO-31 renal,> 55.2 µM
same,TGI,UO-31 renal,> 67.3 µM
same,GI50,PC-3 prostate,> 100 µM
same,TGI,PC-3 prostate,> 100 µM
same,GI50,SK-MEL-5 melanoma,50.2 µM
same,TGI,SK-MEL-5 melanoma,> 100 µM
same,GI50,HCT-15 colon,29 µM
same,TGI,HCT-15 colon,> 67.7 µM
same,GI50,SK-MEL-2 melanoma,15.8 µM
same,TGI,SK-MEL-2 melanoma,28.1 µM
same,GI50,BT-549 breast,18.1 µM
same,TGI,BT-549 breast,35.8 µM
same,GI50,U251 CNS,47.4 µM
same,TGI,U251 CNS,> 85.1 µM
same,GI50,M14 melanoma,30.4 µM
same,TGI,M14 melanoma,56.8 µM
same,GI50,NCI-H522 lung,2.1 µM
same,TGI,NCI-H522 lung,6.84 µM
same,GI50,DMS 273 small cell lung,> 67 µM
same,TGI,DMS 273 small cell lung,> 100 µM
same,GI50,HT29 colon,59.2 µM
same,TGI,HT29 colon,> 100 µM
same,GI50,NCI/ADR-RES ovarian,> 100 µM
same,TGI,NCI/ADR-RES ovarian,> 100 µM
same,GI50,LOX IMVI melanoma,19.2 µM
same,TGI,LOX IMVI melanoma,40.8 µM
same,GI50,LXFL 529 NSCLC,11.1 µM
same,TGI,LXFL 529 NSCLC,24.2 µM
same,GI50,OVCAR-5 ovarian,> 97.4 µM
same,TGI,OVCAR-5 ovarian,> 100 µM
same,GI50,MDA-N,> 100 µM
same,TGI,MDA-N,> 100 µM
same,GI50,RPMI-8226 leukemia,17.2 µM
same,TGI,RPMI-8226 leukemia,45.7 µM
same,GI50,UACC-62 melanoma,27.2 µM
same,TGI,UACC-62 melanoma,52.4 µM
same,GI50,HCT-116 colon,> 69.8 µM
same,TGI,HCT-116 colon,> 100 µM
same,GI50,A498 renal,18.5 µM
same,TGI,A498 renal,35.5 µM
same,GI50,T-47D breast,11.8 µM
same,TGI,T-47D breast,24.4 µM
same,GI50,786-0 renal,33.3 µM
same,TGI,786-0 renal,> 69.3 µM
same,GI50,HOP-92 NSCLC,18 µM
same,TGI,HOP-92 NSCLC,37.7 µM
same,GI50,SNB-75 CNS,21.7 µM
same,TGI,SNB-75 CNS,> 53.4 µM
same,GI50,MALME-3M melanoma,16.5 µM
same,TGI,MALME-3M melanoma,31.4 µM
same,GI50,SW-620 colon,28.3 µM
same,TGI,SW-620 colon,73.7 µM
same,GI50,SN12C renal,> 75 µM
same,TGI,SN12C renal,> 100 µM
same,GI50,OVCAR-8 ovarian,> 70.5 µM
same,TGI,OVCAR-8 ovarian,> 100 µM
same,GI50,SK-OV-3 ovarian,> 100 µM
same,TGI,SK-OV-3 ovarian,> 100 µM
same,GI50,UACC-257 melanoma,32 µM
same,TGI,UACC-257 melanoma,> 46.4 µM
same,GI50,RXF 393 renal,15.4 µM
same,TGI,RXF 393 renal,35.4 µM
same,GI50,MOLT-4 leukemia,28.8 µM
same,TGI,MOLT-4 leukemia,> 91 µM
same,GI50,HL-60(TB) leukemia,> 45.2 µM
same,TGI,HL-60(TB) leukemia,> 100 µM
same,GI50,COLO 205 colon,38.8 µM
same,TGI,COLO 205 colon,62.3 µM
same,GI50,MDA-MB-231 breast,> 100 µM
same,TGI,MDA-MB-231 breast,> 100 µM
same,GI50,KM20L2 colon,> 83.8 µM
same,TGI,KM20L2 colon,> 100 µM
same,GI50,A549 NSCLC,> 100 µM
same,TGI,A549 NSCLC,> 100 µM
same,GI50,CCRF-CEM leukemia,8.77 µM
same,TGI,CCRF-CEM leukemia,35.6 µM
same,GI50,SF-295 CNS,> 62 µM
same,TGI,SF-295 CNS,> 84.6 µM
same,GI50,HCC-2998 colon,> 100 µM
same,TGI,HCC-2998 colon,> 100 µM
same,GI50,NCI-H23 lung,22.6 µM
same,TGI,NCI-H23 lung,45 µM
same,GI50,MCF7 breast,27.4 µM
same,TGI,MCF7 breast,80.6 µM
same,GI50,ACHN renal,32.7 µM
same,TGI,ACHN renal,48.3 µM
same,GI50,DMS 114 small cell lung,20.4 µM
same,TGI,DMS 114 small cell lung,43.1 µM
same,GI50,M19-MEL melanoma,29.8 µM
same,TGI,M19-MEL melanoma,> 77.2 µM
same,GI50,DLD-1 colon,29.8 µM
same,TGI,DLD-1 colon,> 91.3 µM
same,GI50,SR leukemia,22.6 µM
same,TGI,SR leukemia,> 100 µM
same,GI50,OVCAR-4 ovarian,> 100 µM
same,TGI,OVCAR-4 ovarian,> 100 µM
C=CC(=O)C#CC#CC/C=C\CCCCCCC,TGI,HOP-62 NSCLC,> 20.6 µM
same,outcome,HOP-62 NSCLC,inactive
same,TGI,OVCAR-3 ovarian,> 20.6 µM
same,outcome,OVCAR-3 ovarian,inactive
same,TGI,UO-31 renal,> 20.6 µM
same,outcome,UO-31 renal,inactive
same,outcome,PC-3 prostate,inactive
same,TGI,SK-MEL-5 melanoma,> 20.6 µM
same,outcome,SK-MEL-5 melanoma,inactive
same,TGI,HCT-15 colon,> 20.6 µM
same,outcome,HCT-15 colon,inactive
same,TGI,SK-MEL-2 melanoma,> 20.6 µM
same,outcome,SK-MEL-2 melanoma,inactive
same,TGI,BT-549 breast,> 20.6 µM
same,TGI,U251 CNS,> 20.6 µM
same,outcome,U251 CNS,inactive
same,TGI,M14 melanoma,> 20.6 µM
same,outcome,M14 melanoma,inactive
same,TGI,NCI-H522 lung,> 20.6 µM
same,outcome,NCI-H522 lung,inactive
same,TGI,DMS 273 small cell lung,> 20.6 µM
same,TGI,HT29 colon,> 20.6 µM
same,outcome,HT29 colon,inactive
same,TGI,NCI/ADR-RES ovarian,> 20.6 µM
same,outcome,NCI/ADR-RES ovarian,inactive
same,TGI,LOX IMVI melanoma,> 20.6 µM
same,outcome,LOX IMVI melanoma,inactive
same,TGI,LXFL 529 NSCLC,> 20.6 µM
same,TGI,OVCAR-5 ovarian,> 20.6 µM
same,outcome,OVCAR-5 ovarian,inactive
same,outcome,MDA-N,inactive
same,TGI,RPMI-8226 leukemia,> 18.6 µM
same,outcome,RPMI-8226 leukemia,inactive
same,TGI,UACC-62 melanoma,> 20.6 µM
same,outcome,UACC-62 melanoma,inactive
same,TGI,HCT-116 colon,> 20.6 µM
same,outcome,HCT-116 colon,inactive
same,TGI,A498 renal,> 20.6 µM
same,outcome,A498 renal,inactive
same,TGI,T-47D breast,> 20.6 µM
same,outcome,T-47D breast,inactive
same,TGI,786-0 renal,> 18.4 µM
same,outcome,786-0 renal,inactive
same,TGI,HOP-92 NSCLC,> 20.6 µM
same,TGI,SNB-75 CNS,> 20.6 µM
same,outcome,SNB-75 CNS,inactive
same,TGI,MALME-3M melanoma,> 20.6 µM
same,outcome,MALME-3M melanoma,inactive
same,TGI,SW-620 colon,> 20.6 µM
same,outcome,SW-620 colon,inactive
same,TGI,SN12C renal,> 20.6 µM
same,outcome,SN12C renal,inactive
same,TGI,OVCAR-8 ovarian,> 20.6 µM
same,outcome,OVCAR-8 ovarian,inactive
same,TGI,SK-OV-3 ovarian,> 20.6 µM
same,outcome,SK-OV-3 ovarian,inactive
same,TGI,UACC-257 melanoma,> 20.6 µM
same,outcome,UACC-257 melanoma,inactive
same,TGI,RXF 393 renal,> 19.5 µM
same,outcome,RXF 393 renal,inactive
same,TGI,MOLT-4 leukemia,12.3 µM
same,outcome,MOLT-4 leukemia,inactive
same,TGI,HL-60(TB) leukemia,> 20.6 µM
same,outcome,HL-60(TB) leukemia,inactive
same,TGI,COLO 205 colon,> 20.6 µM
same,outcome,COLO 205 colon,inactive
same,TGI,MDA-MB-231 breast,> 20.6 µM
same,outcome,MDA-MB-231 breast,inactive
same,TGI,KM20L2 colon,> 20.6 µM
same,TGI,A549 NSCLC,> 20.6 µM
same,outcome,A549 NSCLC,inactive
same,TGI,CCRF-CEM leukemia,> 17.3 µM
same,outcome,CCRF-CEM leukemia,inactive
same,TGI,SF-295 CNS,> 20.6 µM
same,outcome,SF-295 CNS,inactive
same,TGI,HCC-2998 colon,> 20.6 µM
same,outcome,HCC-2998 colon,inactive
same,TGI,NCI-H23 lung,> 20.6 µM
same,outcome,NCI-H23 lung,inactive
same,TGI,MCF7 breast,> 20.6 µM
same,outcome,MCF7 breast,inactive
same,TGI,ACHN renal,> 20.6 µM
same,outcome,ACHN renal,inactive
same,TGI,DMS 114 small cell lung,> 20.6 µM
same,TGI,M19-MEL melanoma,> 20.6 µM
same,TGI,DLD-1 colon,> 20.6 µM
same,TGI,SR leukemia,14.2 µM
same,outcome,SR leukemia,inactive
same,TGI,OVCAR-4 ovarian,> 20.6 µM
same,outcome,OVCAR-4 ovarian,inactive
